Test results published in article PMC9851200, “Multiparameter phenotypic screening for endogenous TFEB and TFE3 translocation identifies novel chemical series modulating lysosome function” (Autophagy, 2022).
Read-outs that look alike come from different tables or passages of the source.

Tests used:
endogenous TFEB = assay: TFEB nuclear translocation, immunocytochemistry high-content imaging; assay type: cell-based
endogenous TFE3 = assay: TFE3 nuclear translocation, immunocytochemistry high-content imaging; assay type: cell-based
SH-SY5Y cells [1] = test system: SH-SY5Y cells; note: reference of the scale not given here
SH-SY5Y cells [2] = assay: AK (adenylate kinase) release ToxiLight cytotoxicity assay; note: reference of the scale not given here
SH-SY5Y cells [3] = assay: Nuclear count from microscopy images (cellular growth and toxicity); note: reference of the scale not given here
[4] = PKIS2 primary screening, DQ Red BSA intensity
[5] = PKIS2 primary screening, DQ Red BSA spot count

Row | Structure (SMILES) | TFEB % (endogenous TFEB; PKIS2 primary screening) | TFE3 % (endogenous TFE3; PKIS2 primary screening) | DQ Intensity (SH-SY5Y cells [1]; PKIS2 primary screening) | DQ Spot (SH-SY5Y cells [1]; PKIS2 primary screening) | AK (SH-SY5Y cells [2]; PKIS2 primary screening) | Nuclear Count (SH-SY5Y cells [3]; PKIS2 primary screening) | DQ Intensity (SH-SY5Y cells [1]; [4]) | DQ Spot (SH-SY5Y cells [1]; [5]) | TFEB % (endogenous TFEB; PKIS2 primary screen) | TFE3 % (endogenous TFE3; PKIS2 primary screen) | DQ Intensity (SH-SY5Y cells [1]; PKIS2 primary screen, DQ Red BSA intensity) | DQ Spot (SH-SY5Y cells [1]; PKIS2 primary screen, DQ Red BSA spot count) | AK (SH-SY5Y cells [2]; PKIS2 primary screen) | Nuclear Count (SH-SY5Y cells [3]; PKIS2 primary screen)
1 | CCn1c(-c2ccccc2)nc2cnccc21 [UNC10225407A] | 8.26% | 8.88% | 107.17 | 104.42 | 88.86 | 99.61 | – | – | – | – | – | – | – | –
2 | Cc1ccc(Nc2ccnc(Nc3ccc(C)c(F)c3)n2)cc1O [GW582868] | 8.86% | 12.77% | – | – | 95.37 | 87.67 | 80.99 | 94.80 | – | – | – | – | – | –
3 | CC(C(=O)NC1CCN(c2ccnc(Nc3ccc(F)cc3)n2)C1)c1ccc(Cl)cc1 (stereo not drawn) [GSK1379713] | 6.54% | 10.33% | – | – | 94.01 | 84.41 | 153.18 | 124.60 | – | – | – | – | – | –
4 | Nc1ncc(-c2cccnc2)c2scc(-c3ccc4c(c3)CCN4C(=O)Cc3ccccc3)c12 [UNC10225369A] | 3.58% | 19.63% | – | – | 64.72 | 102.35 | 84.54 | 86.78 | – | – | – | – | – | –
5 | CCC(CC)(CC)n1cnc2c(N)ncnc21 [UNC10225302A] | 11.64% | 9.37% | 92.29 | 100.17 | 115.78 | 100.18 | – | – | – | – | – | – | – | –
6 | COc1ccc(NC(=O)c2ccoc2)cc1-c1ccc(C(=O)NCC2CC2)cc1 [UNC10225046A] | 6.55% | 9.04% | 103.40 | 103.73 | 86.14 | 104.87 | – | – | – | – | – | – | – | –
7 | CNc1cc(-c2ccc3c(N)n[nH]c3c2)nc(N)n1 [GSK2224810] | 4.15% | 7.03% | – | – | 132.47 | 109.90 | 93.32 | 95.12 | – | – | – | – | – | –
8 | CS(=O)(=O)CCNCc1nc(-c2ccc3ncnc(Nc4ccc(OCc5ccccc5)c(Cl)c4)c3c2)cs1.Cl [UNC10225279B] | 5.66% | 17.30% | – | – | 96.76 | 87.19 | 82.64 | 92.63 | – | – | – | – | – | –
9 | NCC(NC(=O)c1cc(-c2cn[nH]c2)c(-c2ccnc3[nH]ccc23)s1)c1ccccc1.O=C(O)C(F)(F)F.O=C(O)C(F)(F)F (stereo not drawn) [UNC10225196A] | 5.85% | 18.18% | – | – | 105.21 | 81.98 | 69.88 | 101.21 | – | – | – | – | – | –
10 | COc1ccc(CNC(=O)NC2CCN(c3ccnc(Nc4ccc(OC)cc4)n3)C2)cc1 (stereo not drawn) [GSK1379727] | 4.74% | 11.01% | – | – | 96.08 | 118.16 | 79.60 | 81.20 | – | – | – | – | – | –
11 | COc1ccccc1CNC(=O)c1cc(C(=O)c2ccccc2C)c[nH]1 [UNC10225294A] | – | – | – | – | – | – | – | – | 4.46% | 19.95% | 126.95 | 127.30 | 95.17 | 105.84
12 | COc1cccc(NC(=O)NC2CCN(c3ccnc(Nc4cc(OC)c(OC)c(OC)c4)n3)C2)c1 (stereo not drawn) [GSK1379763] | 4.72% | 18.80% | – | – | 111.80 | 90.02 | 128.42 | 124.42 | – | – | – | – | – | –
13 | Cl.Cl.Cl.Fc1ccc(-c2ncn(C3CCNCC3)c2-c2ccnc(Nc3ccccc3)n2)cc1 [UNC10225420A] | 8.15% | 15.52% | 95.71 | 100.38 | 105.24 | 78.56 | – | – | – | – | – | – | – | –
14 | CN(C)c1ncnc2nc[nH]c12 [UNC10243858A] | 5.99% | 16.40% | 152.14 | 119.94 | 79.19 | 91.65 | – | – | – | – | – | – | – | –
15 | COc1cc(Nc2ncc3c(C)nc(-c4cc5ccccc5[nH]4)n3n2)cc(OC)c1OC [UNC10225084A] | 3.01% | 14.67% | 112.41 | 111.83 | 112.96 | 82.05 | – | – | – | – | – | – | – | –
16 | COc1ccc(Nc2nccc(N3CCC(NC(=O)c4cccc(C#N)c4)C3)n2)cc1 (stereo not drawn) [GSK1379730] | 9.20% | 13.54% | – | – | 125.87 | 108.33 | 67.56 | 85.55 | – | – | – | – | – | –
17 | COC(=O)Nc1nc2ccc(Oc3ccc(NC(=O)Nc4cc(C(F)(F)F)ccc4F)cc3)cc2[nH]1 [GW654607] | 5.38% | 33.87% | – | – | 90.67 | 81.29 | 53.63 | 73.16 | – | – | – | – | – | –
